Source: patent US20230190704A1, “DRUG DELIVERY SYSTEM BASED ON CALCIUM PHOSPHATE NANOPARTICLES FUNCTIONALIZED WITH BIOACTIVE COMPOUNDS FROM EUPHORBIA EXTRACT AND THE USES THEREOF” (CELLBITEC, S.L., priority 2020, published 2023)
≈ marks a conversion by molar mass, not a printed value.

Tests used:
[1] = test system: 15 in vitro models with tumor cells; conditions: 15 in vitro tumor cell models; read-out: inhibitory dose 50 (IC50); cited from earlier work
[2] = test system: T84 human colon adenocarcinoma cell line; assay: Antiproliferative SRB assay of nanoparticles and isolated compounds in T84 cells; type: cell-based; conditions: T84, isolated compound, 72 h
Procedure: The human colon adenocarcinoma cell line T84was purchased from the American Type Culture Collection (Rockville, MD, USA). The non-tumor colon cell line CCD18 (human colon epithelial cell line) was used as control. All cell lines were grown in Dulbecco’s Modified Eagle’s Medium (DMEM) supplemented with 10% heat-inactivated fetal bovine serum (FBS) and ATB (antibiotic, streptomycin + amphotericin B) at 1% and maintained in an incubator at 37° C. and 5% CO2 humidified atmosphere.
Cells were seeded in 48-well plates with DMEM (Dulbecco’s modified Eagles Medium) (300 ul) at a density of 4 x 10^3 cells/well in CCD18 and 5 x 10^3 cells/well in T84. After 24 hours, cell cultures were exposed 72 h to increasing concentrations of the nanoparticles dissolved in DMEM. In addition, bioactive components of the extract, Esculetin (range from 0.1 µg/ml to 5 µg/ml) and Euphorbetin (range from 0.02 µg/ml to 0.7 µg/ml), were combined at different concentration in order to determine their antitumor activity and to compare with nanoparticle activity and ethanolic extract activity. After incubation time, cells were fixed with trichloroacetic acid (TCA) at 10% for 20 minutes at 4° C. […] Finally, the optical density (OD) at 492 nm was measured in a spectrophotometer. Cell survival (%) was calculated according to the following equation: […]

Row | SMILES | IC50 [1] [µM] | IC50 [2] [µg/mL]
1 | CC(C)=CCC[C@@H](C)[C@@H]1CC[C@]2(C)C3=C(CC[C@@]12C)[C@@]1(C)CC[C@H](O)C(C)(C)[C@@H]1CC3 [Euphol] | 2 to 30 | 
2 | O=c1ccc2cc(O)c(O)cc2o1 [Esculetin, esculetin] |  | 0.27 (≈ 1.52 µM)
